Experimental data from patent US20240254138A1, “TRICYCLIC PYRIMIDINES AS CYCLIN-DEPENDENT KINASE 7 (CDK7) INHIBITORS” (JANSSEN PHARMACEUTICA NV, priority 2021, published 2024).
Like-named read-outs stand apart in the source and are kept apart here.

Assays:
[1] = test system: RNA Polymerase II Serine 5 phosphorylation (Rpb1 CTD, downstream substrate of CDK7) in A549 cells; experiment: Imaging-based cellular RNA PolII Ser5 phosphorylation assay in A549 cells; type: cell-based, human; settings: Homo sapiens, A549, A549 cells, wild-type CDK7; RNA PolII Ser5 phosphorylation; averaged over all measurements; read-out: CDK7_A549 Wild-type CDK7 (pIC50) (converted)
From the text: (§1) To evaluate inhibition of CDK7 kinase activity, a 384-well automated imaging assay was used. This assay detects Serine 5 phosphorylation on a unique heptapeptide sequence in the C-terminal domain of Rpb1 subunit of RNA polymerase II, the downstream substrate of CDK7. This heptapeptide sequence is repeated up to 52 times in the CTD of Rpb1.
(§2) A549 adenocarcinoma human alveolar basal epithelial cells (ATCC, CCL-185), rabbit Phospho-Rpb1 CTD (Ser5) antibody (D9N51 (Cell Signaling Technology)), DMEM (Sigma), Fetal Bovine Serum (Biowest), L-glutamine (Sigma), Penicillin/Streptomycin (Life Technologies), Sodium Pyruvate (Sigma), Hepes (Sigma), poly-D-lysine coated μclear 384 black plates (Greiner), formaldehyde (PolySciences), D-PBS (Sigma), Methanol (Sigma), Alexa Fluor 488 goat anti rabbit IgG secondary antibody (Life Technologies), HCS CellMask™ Deep Red stain (Life Technologies), Hoechst 33258 (Invitrogen).
(§3) RNA Polymerase II Serine 5 phosphorylation was detected using a specific rabbit Phospho-Rpb1 CTD (Ser5) antibody. A549 adenocarcinoma human alveolar basal epithelial cells were seeded in 20 μl medium (DMEM supplemented with 1% Fetal Bovine Serum (heat inactivated 30′ 56° C.), 2 mM L-glutamine, 50 U/ml penicillin 50 μg/ml streptomycin, 1 mM sodium pyruvate and 50 mM hepes) at 1000 cells/well and cultured in poly-D-lysine coated μclear 384 black plates for 20 hours at 37° C. and 5% CO2.
(§4) After incubation cells were challenged with compound for 3 hours at 37° C. and 5% CO2. DMSO was used as high control and as low control 10 μM of the following reference compound was used:
(§5) 40 nl of test compounds and controls were spotted in cell plates using Echo Liquid Handler (Echo 550, Labcyte). Incubation was followed by 20 minutes fixation with 20 μl 10% formaldehyde at room temperature. Medium/formaldehyde solution was removed, plates were washed 3 times with 30 μl D-PBS (w/o Ca^2+ and Ma^2+) and permeabilization was done by adding 20 μl ice cold methanol for 20 minutes. Cells were washed again 3 times with 30 μl D-PBS and 20 μl blocking buffer (25 ml fetal bovine serum in 500 ml D-PBS) was added for 1 hour.
(§6) After removing blocking buffer 20 μl 1/1000 primary antibody rabbit Phospho-Rpb1 CTD (Ser5) antibody was added which binds to the phosphorylated Serine5 of the heptapeptide sequences in the CTD of Rpb1. Primary antibody was removed, and plates were washed 3 times with 30 μl D-PBS followed by addition of 20 μl 1/2000 Alexa Fluor 488 goat anti rabbit IgG secondary antibody for final detection of Phospho-Rpb1 CTD (Ser5) together with 1/5000 HCS CellMask™ Deep Red stain for membrane staining and 1/5000 Hoechst 33258 for nucleus staining. Last, plates were washed 2 times with 30 μl D-PBS and wells were filled with 40 μL D-PBS, plates were sealed (Thermowell sealing tape) and stored at 4° C. until reading. Plates were read with Opera Phenix (Perkin Elmer) with 10× air objective. Data were calculated and analyzed in Phaedra.
(§7) IC50 values were calculated using the following formula: […]
(§8) Average value of all HC's and all LC's are used for normalizations.
(§9) A best-fit curve is fitted by a minimum sum of squares method to the plot of % Control vs. compound concentration. From this an IC50 value can be obtained. An estimate of the slope of the plot in terms of the Hill coefficient is also obtained.

[2] = test system: RNA Polymerase II Serine 5 phosphorylation in A549 cells overexpressing CDK7-mutant (C312S); experiment: Imaging-based cellular RNA PolII Ser5 phosphorylation assay in A549 cells overexpressing CDK7-mutant (C312S); type: cell-based, human; settings: RNA PolII Ser5 phosphorylation, averaged over all measurements; for IC50: Homo sapiens, A549, A549 cells overexpressing CDK7-mutant (C312S), read-out: CDK7_A549 mutant hCDK7(pIC50) (converted)
From the text: as §1, §2, §3, §4, §5, §6, §7, §8, §9
In parallel this assay was performed in A549 cells overexpressing CDK7-mutant (C312S) to evaluate the effect of the covalent bond on potency and to screen for potential off-target effects. Mutation of Cysteine to Serine (C312S), a less nucleophilic amino acid, prevents CDK7 inhibitors from covalently binding to CDK7 and from inhibiting CDK7 activity in an irreversible manner. A stably transduced A549 cell pool was generated that overexpresses CDK7 mutant (C312S), but also expresses endogenous CDK7-WT. Covalent binders targeting the cysteine at position 312 will show a shift in potency in A549 cells overexpressing mutant C312S CDK7.

[3] = biological target: CDK7/cyclinH/MAT1 trimeric complex (Homo sapiens, UniProt P50613); experiment: In vitro CDK7 assay, potency of irreversible covalent inhibitors (kinact/KI), coupled PK/LDH ADP readout at 340 nm
[4] = CDK7 (20 nM enz.) (KI, μM), 20 nM enzyme
[5] = read-out: CDK7 (20 nM enz.) (kinact, s^−1), 20 nM enzyme
[6] = read-out: CDK7 (20 nM enz.) (kinact/KI, M^−1*s^−1), 20 nM enzyme
[7] = read-out: CDK7 (20 nM enz.) (kobs/[I], M^−1*s^−1), 20 nM enzyme

Sequence of CDK7/cyclinH/MAT1 trimeric complex (P50613 whole entry): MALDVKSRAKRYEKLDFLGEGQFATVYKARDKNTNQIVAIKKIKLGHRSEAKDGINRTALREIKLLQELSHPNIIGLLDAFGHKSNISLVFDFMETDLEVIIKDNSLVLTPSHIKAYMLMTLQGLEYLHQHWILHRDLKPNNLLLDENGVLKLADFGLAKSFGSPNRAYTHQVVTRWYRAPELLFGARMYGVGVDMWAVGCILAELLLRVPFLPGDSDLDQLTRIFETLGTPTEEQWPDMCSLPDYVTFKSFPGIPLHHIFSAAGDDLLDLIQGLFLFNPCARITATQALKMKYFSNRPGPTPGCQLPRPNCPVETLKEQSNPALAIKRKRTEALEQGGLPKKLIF
Sequence of CDK7/cyclinH/MAT1 trimeric complex (P51946 whole entry partner): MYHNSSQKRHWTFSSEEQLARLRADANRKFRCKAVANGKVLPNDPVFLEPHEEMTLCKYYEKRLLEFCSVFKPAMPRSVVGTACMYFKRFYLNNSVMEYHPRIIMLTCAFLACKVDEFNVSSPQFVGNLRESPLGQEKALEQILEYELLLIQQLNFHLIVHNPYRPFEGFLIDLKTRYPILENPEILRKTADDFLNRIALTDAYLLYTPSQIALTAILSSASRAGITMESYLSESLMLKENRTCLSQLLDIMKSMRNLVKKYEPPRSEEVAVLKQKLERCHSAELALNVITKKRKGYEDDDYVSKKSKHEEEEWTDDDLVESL
Sequence of CDK7/cyclinH/MAT1 trimeric complex (P51948 whole entry partner): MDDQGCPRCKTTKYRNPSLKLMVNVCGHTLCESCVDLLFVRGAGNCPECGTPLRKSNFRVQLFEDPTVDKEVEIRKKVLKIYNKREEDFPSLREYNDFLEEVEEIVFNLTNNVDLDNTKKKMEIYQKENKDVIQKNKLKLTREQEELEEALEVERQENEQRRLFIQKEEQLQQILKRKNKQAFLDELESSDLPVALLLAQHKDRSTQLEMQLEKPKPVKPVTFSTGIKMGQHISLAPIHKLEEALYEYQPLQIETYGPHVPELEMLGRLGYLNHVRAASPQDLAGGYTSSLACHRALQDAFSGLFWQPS

Row | IC50 [1] | IC50 [2] | Ki [3, 4] | kinact [3, 5] | kinact/KI [3, 6] | SMILES | other results
1 | > 10000 nM | > 10000 nM |  |  |  | C=CC(=O)N1CCC(N2CC[C@H](O)[C@@H](c3ccc4c(c3)OCc3c(N5CCOCC5)ccnc3N4)C2)CC1 (mixture of isomers) [Compound 157] | 
2 | 1450 nM | > 10000 nM |  |  |  | C=CC(=O)N1CC(N2CCN(C)[C@H](c3ccc4c(c3)Nc3nccc(N5CCOCC5)c3CO4)C2)C1 (single isomer, unassigned) [Compound 142] | 
3 | > 10000 nM | > 10000 nM |  |  |  | C=CC(=O)N1CC(N2CCN(C)[C@@H](c3ccc4c(c3)Nc3nccc(N5CCOCC5)c3CO4)C2)C1 (single isomer, unassigned) [Compound 144] | 
4 |  |  | 1.4 µM | 5.53e-05 s⁻¹ | 39.4 M⁻¹ s⁻¹ | C=CC(=O)N1CC(N2CCC(c3cc4c(cn3)O[C@@H](C)c3c(N5CCOCC5)ccnc3N4)CC2)C1 (single isomer, unassigned) [Compound 172] | 
5 | 38 nM | > 10000 nM |  |  |  | C=CC(=O)N1CC[C@@H](N2CCC(c3cc4c(c(C)n3)OCc3c(-c5cnn(C)c5)ccnc3N4)CC2)C1 (single isomer, unassigned) [Compound 182] | 
6 | 81.3 nM | > 10000 nM |  |  |  | C=CC(=O)N1CC[C@H](N2CCC(c3cc4c(c(C)n3)OCc3c(-c5cnn(C)c5)ccnc3N4)CC2)C1 (single isomer, unassigned) [Compound 185] | 
7 | 100 nM | > 10000 nM |  |  |  | C#CCCN(C)C/C=C/C(=O)N1CC(N2CCC(c3ccc4c(c3)Nc3nccc(C5CCOCC5)c3[C@@H](C)O4)CC2)C1 (single isomer, unassigned) [Compound 186] | 
8 | 4070 nM | > 10000 nM |  |  |  | C#CCCN(C)C/C=C/C(=O)N1CC(N2CCC(c3ccc4c(c3)Nc3nccc(C5CCOCC5)c3[C@H](C)O4)CC2)C1 (single isomer, unassigned) [Compound 187] | 
9 | 129 nM | > 10000 nM |  |  |  | C#CCCN(C)C/C=C/C(=O)N1CC(N2CCC(c3ccc4c(c3)Nc3nccc(N5CCOCC5)c3[C@H](C)O4)CC2)C1 (single isomer, unassigned) [Compound 195] | 
10 | 100 nM | > 10000 nM |  |  |  | C#Cc1cc2c(cc1C1CCN(C3CN(C(=O)C=C)C3)CC1)Nc1nccc(N3CCOCC3)c1[C@H](C)O2 (single isomer, unassigned) [Compound 209] | 
11 | 8510 nM | > 10000 nM |  |  |  | C#Cc1cc2c(cc1C1CCN(C3CN(C(=O)C=C)C3)CC1)Nc1nccc(N3CCOCC3)c1[C@@H](C)O2 (single isomer, unassigned) [Compound 210] | 
12 |  |  |  |  |  | C#Cc1cc2c(cc1C1CCN(C3CN(C(=O)C=C)C3)CC1)Nc1nccc(N3CCOCC3)c1[C@H](C)O2 (single isomer, unassigned) [Compound 214] | CDK7_A549 mutant hCDK7(pIC50) ([2]; A549 cells overexpressing CDK7-mutant (C312S)): <5; kinact/KI [3, 7]: 417 M⁻¹ s⁻¹
13 | 3160 nM | > 10000 nM |  |  |  | C=CC(=O)N1CC(N2CC(c3cc4c(c(C)n3)O[C@@H](C)c3c(N5CCOCC5)ccnc3N4)C2)C1 (single isomer, unassigned) [Compound 271] | 
14 |  |  |  |  |  | C=CC(=O)N1CC(N2CCC(c3ccc4c(c3)Nc3nccc(N5CCOCC5)c3[C@@H](C)O4)CC2)C1 (single isomer, unassigned) [compound 90] | kinact/KI [3, 7]: 1190 M⁻¹ s⁻¹
15 |  |  | 0.0278 µM | 5.15e-05 s⁻¹ | 1850 M⁻¹ s⁻¹ | C=CC(=O)N1CC(N2CCC(c3cc4c(cn3)O[C@H](C)c3c(N5CCOCC5)ccnc3N4)CC2)C1 (single isomer, unassigned) [compound 171] | 
16 |  |  | 0.0606 µM | 5.08e-05 s⁻¹ | 839 M⁻¹ s⁻¹ | C=CC(=O)N1CC[C@@H](N2CC(c3cc4c(c(C)n3)OCc3c(N5CCOCC5)ccnc3N4)C2)C1 (single isomer, unassigned) [compound 179] | 
17 |  |  | 0.0452 µM | 5.34e-05 s⁻¹ | 1180 M⁻¹ s⁻¹ | C=CC(=O)N1CC[C@H](N2CC(c3cc4c(c(C)n3)OCc3c(N5CCOCC5)ccnc3N4)C2)C1 (single isomer, unassigned) [compound 180] | 
18 |  |  | 2.63 µM | 3.59e-05 s⁻¹ | 13.7 M⁻¹ s⁻¹ | C=CC(=O)N1CC(N2CC(c3cc4c(cn3)O[C@@H](C)c3c(-c5cnn(C)c5)ccnc3N4)C2)C1 (single isomer, unassigned) [compound 300] | 
19 |  |  | 7.92 µM | 4.55e-05 s⁻¹ | 5.74 M⁻¹ s⁻¹ | C=CC(=O)N1CC[C@@H](N2CC(c3cc4c(c(C)n3)O[C@@H](C)c3c(-c5cnn(C)c5)ccnc3N4)C2)C1 (single isomer, unassigned) [compound 420] | 
20 |  |  | 0.0672 µM | 9.76e-05 s⁻¹ | 1450 M⁻¹ s⁻¹ | C=CC(=O)N1CC(N2CCC(c3cc4c(c(C)n3)O[C@H](C)c3c(C5CCOCC5)ccnc3N4)CC2)C1 (single isomer, unassigned) [compound 429] | 
21 |  |  | 0.186 µM |  |  | CC#CC(=O)N1CC(N2CC(c3cc4c(c(C)n3)O[C@H](C)c3c(N5CCOCC5)ccnc3N4)C2)C1 (single isomer, unassigned) [compound 444] | CDK7 (20 nM enz.) (kinact, s^−1) ([3]; 20 nM enzyme): 4.506e-05 s⁻¹; CDK7 (20 nM enz.) (kinact/KI, M^−1*s^−1) ([3]; 20 nM enzyme): 242.644 M⁻¹ s⁻¹
22 |  |  |  |  |  | C=CC(=O)N1CC(N2CCC(c3ccc4c(c3)Nc3nccc(N5CCOCC5)c3CO4)C(C)(C)C2)C1 (stereo not drawn) [Compound 41] | Ki ([3]; CDK7 (KI(μM)), […], 1 mM ATP, room temperature, averaged values over all measurements): 0.083 µM; kinact ([3]; read-out: CDK7 (kinact, s^−1), kinact = maximal rate of inactivation, 1 mM ATP, room temperature, averaged values over all measurements): 8.37e-05 s⁻¹; kinact/KI ([3]; read-out: CDK7 (kinact/KI, M^−1*s^−1), potency of irreversible covalent inhibitors, 1 mM ATP, room temperature, averaged values over all measurements): 1010 M⁻¹ s⁻¹
23 |  |  |  |  |  | C=CC(=O)N1CC(N2CCC(c3cc(C)c4c(c3)Nc3nccc(N5CCS(=O)(=O)CC5)c3CO4)CC2)C1 [Compound 75] | kinact/KI [3, 7]: 1100 M⁻¹ s⁻¹
24 |  |  | 0.168 µM | 4.84e-05 s⁻¹ | 287 M⁻¹ s⁻¹ | C=CC(=O)N1CC(N2CCC(c3cc4c(c(C)n3)OCc3c(C5CCOCC5)ccnc3N4)CC2)C1 [compound 208] | 
25 |  |  |  |  |  | C#CCCN(C)C/C=C/C(=O)N1CC(N2CCC(c3cc(Cl)c4c(c3)Nc3nccc(C5CCOCC5)c3CO4)CC2)C1 [compound 249] | kinact/KI [3, 7]: 1040 M⁻¹ s⁻¹
26 |  |  | 0.156 µM | 4.48e-05 s⁻¹ | 287 M⁻¹ s⁻¹ | C=CC(=O)N1CC(c2nc(C)c(-c3cc4c(c(C)n3)OCc3c(N5CCOCC5)ccnc3N4)c(C)n2)C1 [compound 277] | 
27 |  |  | 0.0237 µM | 5.03e-05 s⁻¹ | 2120 M⁻¹ s⁻¹ | C=CC(=O)N1CCC(N2CCC(c3cc4c(c(C)n3)OCc3c(N5CCOCC5)ccnc3N4)CC2)CC1 [compound 324] | 
28 |  |  | 0.204 µM | 6.25e-05 s⁻¹ | 306 M⁻¹ s⁻¹ | C=CC(=O)N1CC(N2CC(c3cc4c(c(P(C)(C)=O)n3)OCc3c(N5CCOCC5)ccnc3N4)C2)C1 [compound 331] | 
29 |  |  | 0.273 µM | 3.95e-05 s⁻¹ | 144 M⁻¹ s⁻¹ | C=CC(=O)N1CCC(n2ccc(-c3cc4c(c(C)n3)OCc3c(N5CCOCC5)ccnc3N4)cc2=O)CC1 [compound 419] | 
